{"source": "the NIST ThermoML archive (doi:10.1016/j.jct.2016.09.040)", "key": {"[1]": {"test": "mn = molality of the nth substance listed, in mol/kg", "details": "75 kPa, Liquid; for viscosity: Capillary tube (Ostwald / Ubbelohde) method; for speed of sound: Frequency=3 MHz, Sing-around technique in a fixed-path interferometer; for mass density: Vibrating tube method"}, "[2]": {"details": "75 kPa, Liquid; for viscosity: Capillary tube (Ostwald / Ubbelohde) method"}}, "note": "Numbers after ± are expanded uncertainties.", "data": [{"smiles": "[Cl-].[Na+]", "note": "[sodium chloride] + O", "values": [{"measurement": "viscosity", "setting": "[1]; 293.15 K, m1 = 0.1502", "value": "1.011 ± 0.031", "unit": "mPa·s"}, {"measurement": "viscosity", "setting": "[1]; 293.15 K, m1 = 0.3004", "value": "1.018 ± 0.031", "unit": "mPa·s"}, {"measurement": "viscosity", "setting": "[1]; 293.15 K, m1 = 0.5002", "value": "1.034 ± 0.031", "unit": "mPa·s"}, {"measurement": "viscosity", "setting": "[1]; 293.15 K, m1 = 0.7001", "value": "1.059 ± 0.031", "unit": "mPa·s"}, {"measurement": "speed of sound", "setting": "[1]; 293.15 K, m1 = 0.1502", "value": "1492.5 ± 4.1", "unit": "m/s"}, {"measurement": "speed of sound", "setting": "[1]; 293.15 K, m1 = 0.3004", "value": "1502 ± 4.1", "unit": "m/s"}, {"measurement": "speed of sound", "setting": "[1]; 293.15 K, m1 = 0.5002", "value": "1514.4 ± 4.1", "unit": "m/s"}, {"measurement": "speed of sound", "setting": "[1]; 293.15 K, m1 = 0.7001", "value": "1526.9 ± 4.1", "unit": "m/s"}, {"measurement": "mass density", "setting": "[1]; 293.15 K, m1 = 0.1502", "value": "1004.43 ± 0.6", "unit": "kg/m3"}, {"measurement": "mass density", "setting": "[1]; 293.15 K, m1 = 0.3004", "value": "1010.4 ± 0.6", "unit": "kg/m3"}, {"measurement": "mass density", "setting": "[1]; 293.15 K, m1 = 0.5002", "value": "1018.11 ± 0.6", "unit": "kg/m3"}, {"measurement": "mass density", "setting": "[1]; 293.15 K, m1 = 0.7001", "value": "1026.19 ± 0.6", "unit": "kg/m3"}, {"measurement": "viscosity", "setting": "[1]; 298.15 K, m1 = 0.1502", "value": "0.891 ± 0.03", "unit": "mPa·s"}, {"measurement": "viscosity", "setting": "[1]; 298.15 K, m1 = 0.3004", "value": "0.908 ± 0.03", "unit": "mPa·s"}, {"measurement": "viscosity", "setting": "[1]; 298.15 K, m1 = 0.5002", "value": "0.933 ± 0.03", "unit": "mPa·s"}, {"measurement": "viscosity", "setting": "[1]; 298.15 K, m1 = 0.7001", "value": "0.95 ± 0.031", "unit": "mPa·s"}, {"measurement": "speed of sound", "setting": "[1]; 298.15 K, m1 = 0.1502", "value": "1506.2 ± 4.1", "unit": "m/s"}, {"measurement": "speed of sound", "setting": "[1]; 298.15 K, m1 = 0.3004", "value": "1515.3 ± 4.1", "unit": "m/s"}, {"measurement": "speed of sound", "setting": "[1]; 298.15 K, m1 = 0.5002", "value": "1527.3 ± 4.1", "unit": "m/s"}, {"measurement": "speed of sound", "setting": "[1]; 298.15 K, m1 = 0.7001", "value": "1539.2 ± 4.1", "unit": "m/s"}, {"measurement": "mass density", "setting": "[1]; 298.15 K, m1 = 0.1502", "value": "1003.21 ± 0.6", "unit": "kg/m3"}, {"measurement": "mass density", "setting": "[1]; 298.15 K, m1 = 0.3004", "value": "1008.89 ± 0.6", "unit": "kg/m3"}, {"measurement": "mass density", "setting": "[1]; 298.15 K, m1 = 0.7001", "value": "1024.85 ± 0.6", "unit": "kg/m3"}, {"measurement": "viscosity", "setting": "[1]; 303.15 K, m1 = 0.1502", "value": "0.791 ± 0.03", "unit": "mPa·s"}, {"measurement": "viscosity", "setting": "[1]; 303.15 K, m1 = 0.3004", "value": "0.814 ± 0.03", "unit": "mPa·s"}, {"measurement": "viscosity", "setting": "[1]; 303.15 K, m1 = 0.5002", "value": "0.835 ± 0.03", "unit": "mPa·s"}, {"measurement": "viscosity", "setting": "[1]; 303.15 K, m1 = 0.7001", "value": "0.852 ± 0.03", "unit": "mPa·s"}, {"measurement": "speed of sound", "setting": "[1]; 303.15 K, m1 = 0.1502", "value": "1518.1 ± 4.1", "unit": "m/s"}, {"measurement": "speed of sound", "setting": "[1]; 303.15 K, m1 = 0.3004", "value": "1527 ± 4.1", "unit": "m/s"}, {"measurement": "speed of sound", "setting": "[1]; 303.15 K, m1 = 0.5002", "value": "1538.6 ± 4.1", "unit": "m/s"}, {"measurement": "speed of sound", "setting": "[1]; 303.15 K, m1 = 0.7001", "value": "1550.2 ± 4.1", "unit": "m/s"}, {"measurement": "mass density", "setting": "[1]; 303.15 K, m1 = 0.1502", "value": "1001.74 ± 0.6", "unit": "kg/m3"}, {"measurement": "mass density", "setting": "[1]; 303.15 K, m1 = 0.3004", "value": "1007.39 ± 0.6", "unit": "kg/m3"}, {"measurement": "mass density", "setting": "[1]; 303.15 K, m1 = 0.5002", "value": "1015.58 ± 0.6", "unit": "kg/m3"}, {"measurement": "mass density", "setting": "[1]; 303.15 K, m1 = 0.7001", "value": "1023.12 ± 0.6", "unit": "kg/m3"}, {"measurement": "viscosity", "setting": "[1]; 308.15 K, m1 = 0.1502", "value": "0.712 ± 0.03", "unit": "mPa·s"}, {"measurement": "viscosity", "setting": "[1]; 308.15 K, m1 = 0.3004", "value": "0.738 ± 0.03", "unit": "mPa·s"}, {"measurement": "viscosity", "setting": "[1]; 308.15 K, m1 = 0.5002", "value": "0.755 ± 0.03", "unit": "mPa·s"}, {"measurement": "viscosity", "setting": "[1]; 308.15 K, m1 = 0.7001", "value": "0.768 ± 0.03", "unit": "mPa·s"}, {"measurement": "speed of sound", "setting": "[1]; 308.15 K, m1 = 0.3004", "value": "1537.1 ± 4.1", "unit": "m/s"}, {"measurement": "speed of sound", "setting": "[1]; 308.15 K, m1 = 0.5002", "value": "1548.3 ± 4.1", "unit": "m/s"}, {"measurement": "speed of sound", "setting": "[1]; 308.15 K, m1 = 0.7001", "value": "1559.5 ± 4.1", "unit": "m/s"}, {"measurement": "mass density", "setting": "[1]; 308.15 K, m1 = 0.1502", "value": "1000.1 ± 0.6", "unit": "kg/m3"}, {"measurement": "mass density", "setting": "[1]; 308.15 K, m1 = 0.3004", "value": "1005.86 ± 0.6", "unit": "kg/m3"}, {"measurement": "mass density", "setting": "[1]; 308.15 K, m1 = 0.7001", "value": "1021.53 ± 0.6", "unit": "kg/m3"}, {"measurement": "viscosity", "setting": "[1]; 313.15 K, m1 = 0.1502", "value": "0.645 ± 0.03", "unit": "mPa·s"}, {"measurement": "viscosity", "setting": "[1]; 313.15 K, m1 = 0.3004", "value": "0.665 ± 0.03", "unit": "mPa·s"}, {"measurement": "viscosity", "setting": "[1]; 313.15 K, m1 = 0.5002", "value": "0.687 ± 0.03", "unit": "mPa·s"}, {"measurement": "viscosity", "setting": "[1]; 313.15 K, m1 = 0.7001", "value": "0.701 ± 0.03", "unit": "mPa·s"}, {"measurement": "speed of sound", "setting": "[1]; 313.15 K, m1 = 0.1502", "value": "1537.6 ± 4.1", "unit": "m/s"}, {"measurement": "speed of sound", "setting": "[1]; 313.15 K, m1 = 0.3004", "value": "1545.7 ± 4.1", "unit": "m/s"}, {"measurement": "speed of sound", "setting": "[1]; 313.15 K, m1 = 0.5002", "value": "1556.5 ± 4.1", "unit": "m/s"}, {"measurement": "speed of sound", "setting": "[1]; 313.15 K, m1 = 0.7001", "value": "1567.3 ± 4.1", "unit": "m/s"}, {"measurement": "mass density", "setting": "[1]; 313.15 K, m1 = 0.1502", "value": "998.234 ± 0.6", "unit": "kg/m3"}, {"measurement": "mass density", "setting": "[1]; 313.15 K, m1 = 0.3004", "value": "1004.13 ± 0.6", "unit": "kg/m3"}, {"measurement": "mass density", "setting": "[1]; 313.15 K, m1 = 0.5002", "value": "1011.76 ± 0.6", "unit": "kg/m3"}]}, {"smiles": "O", "note": "[water]", "values": [{"measurement": "viscosity", "setting": "[2]; 293.15 K", "value": "1.003 ± 0.031", "unit": "mPa·s"}, {"measurement": "viscosity", "setting": "[2]; 298.15 K", "value": "0.89 ± 0.03", "unit": "mPa·s"}, {"measurement": "viscosity", "setting": "[2]; 303.15 K", "value": "0.798 ± 0.03", "unit": "mPa·s"}, {"measurement": "viscosity", "setting": "[2]; 308.15 K", "value": "0.72 ± 0.03", "unit": "mPa·s"}, {"measurement": "viscosity", "setting": "[2]; 313.15 K", "value": "0.653 ± 0.03", "unit": "mPa·s"}, {"measurement": "speed of sound", "setting": "[2]; 313.15 K, Frequency=3 MHz, Sing-around technique in a fixed-path interferometer", "value": "1529 ± 4.1", "unit": "m/s"}]}, {"smiles": "O", "note": "[water] + CCC(N)C(=O)O", "values": [{"measurement": "viscosity", "setting": "[1]; 293.15 K, m2 = 0", "value": "1.003 ± 0.031", "unit": "mPa·s"}, {"measurement": "viscosity", "setting": "[1]; 298.15 K, m2 = 0", "value": "0.89 ± 0.03", "unit": "mPa·s"}, {"measurement": "viscosity", "setting": "[1]; 303.15 K, m2 = 0", "value": "0.798 ± 0.03", "unit": "mPa·s"}, {"measurement": "viscosity", "setting": "[1]; 308.15 K, m2 = 0", "value": "0.72 ± 0.03", "unit": "mPa·s"}, {"measurement": "mass density", "setting": "[1]; 308.15 K, m2 = 0", "value": "994.063 ± 0.6", "unit": "kg/m3"}, {"measurement": "viscosity", "setting": "[1]; 313.15 K, m2 = 0", "value": "0.653 ± 0.03", "unit": "mPa·s"}, {"measurement": "speed of sound", "setting": "[1]; 313.15 K, m2 = 0", "value": "1529 ± 4.1", "unit": "m/s"}]}, {"smiles": "O", "note": "[water] + [Cl-].[Na+]", "values": [{"measurement": "viscosity", "setting": "[1]; 293.15 K, m2 = 0", "value": "1.003 ± 0.031", "unit": "mPa·s"}, {"measurement": "viscosity", "setting": "[1]; 298.15 K, m2 = 0", "value": "0.89 ± 0.03", "unit": "mPa·s"}, {"measurement": "viscosity", "setting": "[1]; 303.15 K, m2 = 0", "value": "0.798 ± 0.03", "unit": "mPa·s"}, {"measurement": "viscosity", "setting": "[1]; 308.15 K, m2 = 0", "value": "0.72 ± 0.03", "unit": "mPa·s"}, {"measurement": "mass density", "setting": "[1]; 308.15 K, m2 = 0", "value": "994.063 ± 0.6", "unit": "kg/m3"}, {"measurement": "viscosity", "setting": "[1]; 313.15 K, m2 = 0", "value": "0.653 ± 0.03", "unit": "mPa·s"}, {"measurement": "speed of sound", "setting": "[1]; 313.15 K, m2 = 0", "value": "1529 ± 4.1", "unit": "m/s"}]}]}
